The subject of data set [1] is pre-leukemia, or myelodysplastic syndromes(MDS). As to conditions: in vitro; cited from earlier work.
Data set [2] relates to leukemic cells. Particulars: in vitro, small number of patients; cited from earlier work.
Data set [3] is described as follows: Plasma ascorbate level in mice given sodium ascorbate or L-gulono-γ-lactone (HPLC-ECD). Particulars: 5 mmole/kg, intraperitoneal.
Experimental: Time-dependent changes of plasma ascorbate level in mice given sodium ascorbate (-o-) and L-gulono-γ-lactone (-•-). Drugs were dissolved in distilled water and administered by intraperitoneal injections, both at 5 mmole/kg. Blood was taken from each animal time-sequentially for the assay of plasma ascorbate with HPLC-ECD, as described in MATERIALS AND METHODS. Zero time control animals were given 0.2 ml of normal saline. Data represent Mean±SD (n=3−5).
Specific pathogen-free female BALB/c mice (body weight, ca. 25 g) were used in the present study. Animals were obtained from Dae-Han Laboratory Animal Center (Daejeon, Korea) and cared for according to the ILAR guidelines in the animal care facility of Samsung Biomedical Research Center (Seoul, Korea). They were fed a diet from Jell Laboratory Chow (Seoul, Korea). Feed and water were offered ad libitum.
The animal was anesthetized with diethyl ether vapour and blood was obtained by choroidal venous plexus. About one ml of blood was collected into a microcentrifuge tube that contained 50 μl of 130 mM sodium citrate as an anticoagulant. […] The ascorbate content in the supernatant was measured directly by HPLC method. An aliquot of the sample was treated with 100 mM dithiothreitol at neutral pH to reduce dehydroascorbate to ascorbate, and then total ascorbate content was measured. […]

In the case of `O=C1O[C@H]([C@@H](O)CO)C(O)=C1O` [LAA, L-ascorbic acid], in data set [1], the “share of MDS showing growth enhancement with LAA” value is reported as 30% and the “share of MDS showing growth suppression with LAA” value is 16%. Further, the “fraction of patients whose leukemic cell growth was modulated by LAA” value in data set [2] is listed as “approximately ½”.

`O=C1O[C@H]([C@@H](O)CO)C([O-])=C1O.[Na+]` [ascorbate, Sodium ascorbate]: in data set [3], the “return of accumulated plasma ascorbate to normal levels” value was “rapidly diminished to normal levels within a few hours”.

The values above are taken from patent US6989143B1, “Depletion method of blood plasma ascorbate” (priority 2000, dated 2006).
